Measured values reported in article PMC6664820, “Novel natural and synthetic inhibitors of solute carriers SGLT1 and SGLT2” (Pharmacology Research & Perspectives, 2019).
Values joined by “and” are separate entries in the source; they are usually repeats but may differ in a detail not shown here. Equal values may be shown once. Where a name gives a salt, the structure may show the parent alone. Read-outs that look alike come from different tables or passages of the source.

How the values were obtained:
hSGLT2 = target: T1, hSGLT2 (Homo sapiens, UniProt P31639); assay: SGLT2 inhibition assay for validation of screening hits and similar compounds (1‐NBD‐glucose uptake, CHO‐hSGLT2 cells); assay type: cell-based; design: activity: dose or concentration left out as unconfirmed; conditions: for activity: compound, normalized 1-NBD-glucose uptake, CHO-hSGLT2 cells; for remaining activity at 5 µM / remaining activity at 50 µM: 0.5 h, read-out: NORMALIZED SGLT2 ACTIVITY (%)
T1 sequence (P31639 1-672): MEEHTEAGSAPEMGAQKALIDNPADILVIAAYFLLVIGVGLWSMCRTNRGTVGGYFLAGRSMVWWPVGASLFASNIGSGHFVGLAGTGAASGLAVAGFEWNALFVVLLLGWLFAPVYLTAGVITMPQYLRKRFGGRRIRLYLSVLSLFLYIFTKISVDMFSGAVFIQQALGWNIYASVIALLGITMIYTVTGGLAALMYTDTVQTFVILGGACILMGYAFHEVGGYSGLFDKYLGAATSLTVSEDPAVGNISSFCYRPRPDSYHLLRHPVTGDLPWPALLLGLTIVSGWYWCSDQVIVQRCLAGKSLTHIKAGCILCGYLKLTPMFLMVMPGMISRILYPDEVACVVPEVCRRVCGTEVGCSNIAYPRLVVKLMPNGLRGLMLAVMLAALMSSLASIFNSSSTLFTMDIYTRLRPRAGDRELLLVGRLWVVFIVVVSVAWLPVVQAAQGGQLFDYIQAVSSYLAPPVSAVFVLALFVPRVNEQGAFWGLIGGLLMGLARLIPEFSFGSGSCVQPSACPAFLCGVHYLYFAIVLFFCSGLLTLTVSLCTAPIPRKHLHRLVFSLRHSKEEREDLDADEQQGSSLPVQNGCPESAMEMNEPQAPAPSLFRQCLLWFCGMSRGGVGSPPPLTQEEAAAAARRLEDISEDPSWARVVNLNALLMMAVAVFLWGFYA

CHO‐hSGLT1/2 cells = assay: Cytotoxicity assay (ToxiLight, adenylate kinase leakage into CHO‐SGLT1/2 inhibition assay media); design: CYTOTOXICITY / CY[…], mean / CYTOTOXICITY (% of vehicle control) Mean / CYTOTOXICITY, mean / CY[…] (% of vehicle control) Mean: dose or concentration left out as unconfirmed; conditions: mean; for CY[…] 50 mM: at 50 mM (so in the source);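 as to all read-outs here: bioluminescent read-out of adenylate kinase released from lysed cells into the medium, given relative to DMSO vehicle control defined as 0%, higher meaning more cytolysis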
SGLT1 = target: T2, SGLT1 (Homo sapiens, UniProt P13866); assay: SGLT1 inhibition assay for validation of screening hits and similar compounds (1‐NBD‐glucose uptake, CHO‐hSGLT1 cells); assay type: cell-based; design: activity: dose or concentration left out as unconfirmed; conditions: for activity: compound, normalized 1-NBD-glucose uptake, CHO-hSGLT1 cells; for remaining activity at 5 µM / remaining activity at 50 µM: 0.5 h, read-out: NORMALIZED SGLT1 ACTIVITY (%)
T2 sequence (P13866 1-664): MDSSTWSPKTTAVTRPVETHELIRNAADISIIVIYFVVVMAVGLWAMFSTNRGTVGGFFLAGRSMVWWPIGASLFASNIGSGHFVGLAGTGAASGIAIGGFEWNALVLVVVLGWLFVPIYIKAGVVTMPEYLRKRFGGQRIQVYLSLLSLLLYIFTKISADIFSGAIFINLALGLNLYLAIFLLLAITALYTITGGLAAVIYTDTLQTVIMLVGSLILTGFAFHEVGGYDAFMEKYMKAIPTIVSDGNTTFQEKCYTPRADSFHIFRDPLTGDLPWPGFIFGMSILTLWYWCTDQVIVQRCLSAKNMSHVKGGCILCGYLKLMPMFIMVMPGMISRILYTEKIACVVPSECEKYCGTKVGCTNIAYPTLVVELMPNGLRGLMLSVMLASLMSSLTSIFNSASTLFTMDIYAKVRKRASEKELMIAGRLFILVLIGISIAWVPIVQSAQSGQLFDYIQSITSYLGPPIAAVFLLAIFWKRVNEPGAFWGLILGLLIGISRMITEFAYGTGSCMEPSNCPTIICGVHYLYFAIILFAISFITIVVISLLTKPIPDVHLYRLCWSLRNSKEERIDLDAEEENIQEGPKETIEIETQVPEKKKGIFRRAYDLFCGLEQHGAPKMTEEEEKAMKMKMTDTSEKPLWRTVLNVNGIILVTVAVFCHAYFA

[1] = ratio of normalized SGLT2 to SGLT1 activity at 5 uM

Structure (SMILES)	CYTOTOXICITY (% of vehicle control) Mean (CHO‐hSGLT1/2 cells)	activity (SGLT1; mean) [%]	activity (hSGLT2; mean) [%]	SGLT2/SGLT1 ACTIVITY RATIO 5 uM Mean (hSGLT2; [1])	remaining activity at 5 µM (hSGLT2; mean, concentration not given) [%]	remaining activity at 50 µM (hSGLT2; mean, concentration not given) [%]	CYTOTOXICITY (CHO‐hSGLT1/2 cells)	remaining activity at 5 µM (SGLT1; mean, concentration not given) [%]	remaining activity at 50 µM (SGLT1; mean, concentration not given) [%]	other results
C=C(C)C(CC=C(C)C)Cc1c(O)cc2c(c1O)C(=O)CC(c1ccc(O)cc1O)O2 (stereo not drawn) [Kushenol F]	15 % of vehicle control	109								SGLT2/SGLT1 ACTIVITY RATIO 5 uM Mean (hSGLT2): 1.1; SGLT2/SGLT1 ACTIVITY RATIO 50 mM Mean (hSGLT2): 1.1
COc1cc(O[C@@H]2O[C@H](CO)[C@@H](O)[C@H](O)[C@H]2O)c2c(c1)O[C@H](c1ccc(O)cc1)CC2=O [Sakuranin]	-1.5 % of vehicle control	98	100	1.0						
C[C@@H]1O[C@@H](O[C@H]2[C@H](O[C@H]3CC[C@]4(C)[C@H]5CC=C6[C@@H]7CC(C)(C)CC[C@]7(C(=O)O)CC[C@@]6(CO)[C@]5(C)CC[C@H]4C3(C)C)OC[C@H](O[C@@H]3O[C@H](CO)[C@@H](O)[C@H](O)[C@H]3O)[C@@H]2O)[C@H](O)[C@H](O)[C@H]1O [Raddeanoside 20]					116	116	-24	103	99	
CC(=O)OC1c2c(ccc3ccc(=O)oc23)OC(C)(C)C1OC(=O)C=C(C)C (stereo not drawn) [Samidin]	-10 % of vehicle control	85	94	1.1						
C[C@@H]1O[C@@H](O[C@H]2[C@H](O[C@H]3CC[C@@]4(C)[C@@H](CC[C@]5(C)[C@@H]4CC=C4[C@@H]6CC(C)(C)CC[C@]6(C(=O)O)CC[C@]45C)[C@]3(C)CO)OC[C@H](O)[C@@H]2O)[C@H](O)[C@H](O[C@@H]2O[C@H](CO)[C@@H](O)[C@H](O)[C@H]2O)[C@H]1O [Kalopanaxsaponin H]					117	110	-33	104	99	
COC(=O)[C@@]1(C)CC[C@]2(C(=O)O[C@@H]3O[C@H](CO)[C@@H](O)[C@H](O)[C@H]3O)CC[C@]3(C)C(=CC[C@@H]4[C@@]5(C)C[C@H](O)[C@H](O[C@@H]6OC[C@@H](O[C@@H]7O[C@H](CO)[C@@H](O)[C@H](O)[C@H]7O)[C@H](O)[C@H]6O)[C@@](C)(CO)[C@@H]5CC[C@]43C)[C@@H]2C1 [Esculentoside H]					120	112	-13	104	102	
COc1cc(O)cc(/C=C/c2cccc(O)c2)c1 [Thunalbene]					108	148	-81	106	145	
C=C[C@@]1(C)CC(=O)[C@]2(O)[C@@]3(C)[C@@H](O)CCC(C)(C)[C@@H]3[C@H](O)[C@H](OC(C)=O)[C@@]2(C)O1 [Forskolin]					103	95		89	79	CY[…] 50 mM (CHO‐hSGLT1/2 cells): 12
CN1[C@@H](CC(=O)c2ccccc2)CCC[C@H]1C[C@H](O)c1ccccc1 [(-)-Lobeline HCl]					97	63		98	57	CY[…] 50 mM (CHO‐hSGLT1/2 cells): -18
COc1cc(O)c2c(=O)c(-c3ccc(OC4OC(CO)C(O)C(O)C4O)cc3)coc2c1 (stereo not drawn) [Prunetin-4-p-galactoside]	-26 % of vehicle control	81	100	1.2						
CCN(CC)CCOC(=O)C1(c2ccccc2)CCCC1 [Caramiphen HCl]	-5.41 % of vehicle control	101	88	0.9						
CC=C(C)C(=O)O[C@@H]1[C@H](OC(C)=O)c2c(ccc3ccc(=O)oc23)OC1(C)C [praeruptorin A]	-0.825 % of vehicle control	93	111	1.2						SGLT2/SGLT1‐50μmol/L (ratio of SGLT2 to SGLT1 activities with 50 μmol/L inhibitor) (SGLT1): 3.1
COc1cc(/C=C/c2cc(O)cc(O)c2)c2c(c1)O[C@H](c1ccc(OC)c(O)c1)[C@H]2c1cc(O)cc(O)c1 [Shegansu B]					101	103	-25	100	100	
CC1(C)Oc2ccc3ccc(=O)oc3c2[C@H](O)[C@@H]1O [cis-Khellactone]	-9 % of vehicle control	102	95	0.9						
C/C=C(\C)C(=O)O[C@H]1c2c(ccc3ccc(=O)oc23)OC(C)(C)[C@H]1OC(=O)/C(C)=C/C [praeruptorin D]	-9 % of vehicle control	79	110	1.4						SGLT2/SGLT1‐50μmol/L (ratio of SGLT2 to SGLT1 activities with 50 μmol/L inhibitor) (SGLT1): 2.6
COC(=O)C(c1ccccc1Cl)N1CCc2sccc2C1 (stereo not drawn) [Clopidogrelum, clopidogrel]										SGLT2/SGLT1 ACTIVITY RATIO (hSGLT2): 1.1 and 1.0; remaining activity at 5 µM (hSGLT2): 95%; remaining activity at 50 µM (hSGLT2): 60%; CY[…] 50 mM (CHO‐hSGLT1/2 cells): -9; remaining activity at 5 µM (SGLT1): 96%; remaining activity at 50 µM (SGLT1): 54%
Oc1cc(O)cc(/C=C/c2ccc(O)c(O)c2)c1 [Piceatannol]					101	105	-87	107	101	
COc1ccc(-c2coc3cc(O[C@@H]4O[C@H](CO)[C@@H](O)[C@H](O)[C@H]4O)c(OC)cc3c2=O)cc1 [wistin]	-51 % of vehicle control	99	98	1.0						Cytotoxicity (percentage of bioluminescence of DMSO vehicle control, set at 0%) (CHO‐hSGLT1/2 cells; CHO‐SGLT1 and CHO‐SGLT2 data combined, ≥20% considered toxic): −51%
COc1cc(/C=C/c2ccc(O)cc2)cc(OC)c1 [Pterostilbene]					102	123	-42	100	119	
